Results on 1 compound are retold here after publication PMC11549461, “Stability of immobilized L-arginine deiminase from Penicillium chrysogenum and evaluation of its anticancer activity” (Scientific Reports, 2024).

For the assay, the system named is L-arginine deiminase (ADI). The assay can be described thus: Lineweaver-Burk plot; ammonia release with Nessler's reagent. In kind it is biochemical, Penicillium chrysogenum. Particulars: free enzyme; pH and temperature of the kinetic assay not given.

As to `N=C(N)NCCC[C@H](N)C(=O)O` [L-arginine], the Km (as a rule, the concentration of substrate that gives half-maximal velocity) stood at 760 µM.
